Assay results reported in PubChem BioAssay AID463211 (Broad Institute, 2010).
Activity calls are given as the source filed them.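 Rule for the calls: active = loss of HeLa cell viability with AC50 at most tenfold above the top tested dose; inconclusive = flat fit with signal drop between 30% and 70%, or poor fit; inactive = AC50 more than tenfold above top tested dose.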

These molecules were tested on HeLa viability, ATP luminescence (CellTiterGlo), 48 h (assay: mammalian cell viability by ATP level – luminescence, HeLa, cytotoxicity control for LANA inhibitor project, dose response (AID 463211)).

**Q.** `O=C(CCCN1C(=O)c2cccc3cccc(c23)C1=O)N1CCN(c2ccccc2)CC1` was tested. Which AC50 did it give?
**A.** > 35 µM (inactive)

**Q.** For `Cc1nn(C)cc1N1C(=O)c2cccc3c(N)ccc(c23)C1=O`, which AC50 is on record?
**A.** > 35 µM (inactive)

**Q.** For `O=C1c2ccccc2-c2onc3ccc(NCc4ccco4)c1c23`, which AC50 is on record?
**A.** 28.5 µM

**Q.** `O=C1c2ccccc2-c2onc3ccc(NCCCn4ccnc4)c1c23` was tested. Which AC50 did it give?
**A.** 32.4 µM

**Q.** Which AC50 does the source give for `CC(=O)Oc1ccc2c(c1)Oc1cc(OC(C)=O)ccc1C21OC(=O)c2ccccc21` here?
**A.** > 35 µM (inactive)

**Q.** For `O=C1CCN2C=Nc3cccc4ccc1c2c34`, which AC50 is on record?
**A.** 8.08 µM

**Q.** With `COc1ccc2ccccc2c1C(O)c1nccn1C` (centres undefined) as the molecule, how does the AC50 read?
**A.** > 35 µM (inactive)

**Q.** For `CC(C)(C)C1(C)OC(=O)C(=Cc2ccc(OCC(=O)Nc3ccccc3)cc2)C(=O)O1` (centres undefined), which AC50 is on record?
**A.** > 35 µM (inactive)

**Q.** `Cc1n[nH]c(C)c1N1C(=O)c2cccc3c(N4CCCCCC4)ccc(c23)C1=O` was tested. Which AC50 did it give?
**A.** > 35 µM (inactive)

**Q.** For `CN(C)/C=C1\C=C2C(=O)c3ccccc3N2C1=O`, which AC50 is on record?
**A.** > 35 µM (inactive)

**Q.** With `O=S(=O)(Nc1cc(Cl)ccc1N1CCOCC1)c1ccccc1Cl` as the molecule, how does the AC50 read?
**A.** > 35 µM (inactive)

**Q.** For `Cc1cc(C)cc(NS(=O)(=O)c2ccc3c(c2)C(C)(C)C(=O)N3C)c1`, which AC50 is on record?
**A.** > 35 µM (inactive)

**Q.** How did the AC50 turn out when `O=c1ccc2c(-c3ccccc3)c3ccc(O)cc3oc-2c1` was run?
**A.** > 35 µM (inactive)

**Q.** With `CCCCCCCCCCCCCCCC[n+]1ccc(/C=N/O)cc1` as the molecule, how does the AC50 read?
**A.** 11.9 µM

**Q.** How did the AC50 turn out when `Cc1cccc(N2C(=O)c3cccc4c(N(C)CCO)ccc(c34)C2=O)c1` was run?
**A.** > 35 µM (inactive)

**Q.** With `CC1Cc2ccccc2N1C(=O)CSc1ncccn1` (centres undefined) as the molecule, how does the AC50 read?
**A.** > 35 µM (inactive)

**Q.** `Cc1cc(C)c2nc(C(F)(F)F)nc(NCCCN3CCCC3=O)c2c1` was tested. Which AC50 did it give?
**A.** > 35 µM (inactive)

**Q.** For `Cn1nc(-c2ccccc2)c2nc3ccccc3nc21`, which AC50 is on record?
**A.** > 35 µM (inactive)

**Q.** `Cc1cc2nc3c(=O)n(Cc4ccccc4)c(=O)[nH]c3nc2cc1N` was tested. Which AC50 did it give?
**A.** > 35 µM (inactive)

**Q.** Which AC50 does the source give for `COc1ccc2c3c(cccc13)C(=O)CC2` here?
**A.** 22.3 µM

**Q.** With `CCCCCCn1c(=O)[nH]c2nc3cc(N)ccc3nc2c1=O` as the molecule, how does the AC50 read?
**A.** > 35 µM (inactive)

**Q.** With `CC(=O)Nc1ccc(-c2cn3ccsc3n2)cc1` as the molecule, how does the AC50 read?
**A.** > 35 µM (inactive)

**Q.** `COc1ccc(C2C=C(c3ccc(Br)cc3)Nc3nc(NS(C)(=O)=O)nn32)cc1` (centres undefined) was tested. Which AC50 did it give?
**A.** > 35 µM (inactive)

**Q.** Which AC50 does the source give for `Cc1nn(C)c(C)c1N1C(=O)c2cccc3c(N)ccc(c23)C1=O` here?
**A.** > 35 µM (inactive)

**Q.** How did the AC50 turn out when `COc1cccc2c1C(=O)c1c(O)c3c(c(O)c1C2=O)CC(O)(C(=O)CO)CC3OC1CC(N)C(O)C(C)O1` (centres undefined) was run?
**A.** 4.4 µM

**Q.** With `CC1=NCCc2c1[nH]c1cc(O)ccc21` as the molecule, how does the AC50 read?
**A.** > 35 µM (inactive)

**Q.** `CC(=O)Nc1cccc(N)c1` was tested. Which AC50 did it give?
**A.** > 35 µM (inactive)

**Q.** With `Cc1ccc(Cl)cc1N1CCN(C(=O)C2CCN(S(C)(=O)=O)CC2)CC1` as the molecule, how does the AC50 read?
**A.** > 35 µM (inactive)

**Q.** With `CC(C)CSC1=NSC2=NC(=O)/C(=C\c3coc4ccccc4c3=O)C(=N)N12` as the molecule, how does the AC50 read?
**A.** > 35 µM (inactive)
